Reference: ChEMBL document CHEMBL5661975, “Discovery and pharmacologic characterization of CP-724,714, a selective ErbB2 tyrosine kinase inhibitor” (Cancer Res, 2007)
≈ marks a conversion by molar mass, not a printed value. Calls of active or inactive are those of the source. The rule behind the calls is not given here.

Key:
[1] = biological target: T1, Receptor tyrosine-protein kinase erbB-2 (Homo sapiens, UniProt P04626); test: Inhibition of human recombinant intracellular domain of erbB2; format: cell-based
T1 sequence (P04626 whole entry, the tested form may be a part): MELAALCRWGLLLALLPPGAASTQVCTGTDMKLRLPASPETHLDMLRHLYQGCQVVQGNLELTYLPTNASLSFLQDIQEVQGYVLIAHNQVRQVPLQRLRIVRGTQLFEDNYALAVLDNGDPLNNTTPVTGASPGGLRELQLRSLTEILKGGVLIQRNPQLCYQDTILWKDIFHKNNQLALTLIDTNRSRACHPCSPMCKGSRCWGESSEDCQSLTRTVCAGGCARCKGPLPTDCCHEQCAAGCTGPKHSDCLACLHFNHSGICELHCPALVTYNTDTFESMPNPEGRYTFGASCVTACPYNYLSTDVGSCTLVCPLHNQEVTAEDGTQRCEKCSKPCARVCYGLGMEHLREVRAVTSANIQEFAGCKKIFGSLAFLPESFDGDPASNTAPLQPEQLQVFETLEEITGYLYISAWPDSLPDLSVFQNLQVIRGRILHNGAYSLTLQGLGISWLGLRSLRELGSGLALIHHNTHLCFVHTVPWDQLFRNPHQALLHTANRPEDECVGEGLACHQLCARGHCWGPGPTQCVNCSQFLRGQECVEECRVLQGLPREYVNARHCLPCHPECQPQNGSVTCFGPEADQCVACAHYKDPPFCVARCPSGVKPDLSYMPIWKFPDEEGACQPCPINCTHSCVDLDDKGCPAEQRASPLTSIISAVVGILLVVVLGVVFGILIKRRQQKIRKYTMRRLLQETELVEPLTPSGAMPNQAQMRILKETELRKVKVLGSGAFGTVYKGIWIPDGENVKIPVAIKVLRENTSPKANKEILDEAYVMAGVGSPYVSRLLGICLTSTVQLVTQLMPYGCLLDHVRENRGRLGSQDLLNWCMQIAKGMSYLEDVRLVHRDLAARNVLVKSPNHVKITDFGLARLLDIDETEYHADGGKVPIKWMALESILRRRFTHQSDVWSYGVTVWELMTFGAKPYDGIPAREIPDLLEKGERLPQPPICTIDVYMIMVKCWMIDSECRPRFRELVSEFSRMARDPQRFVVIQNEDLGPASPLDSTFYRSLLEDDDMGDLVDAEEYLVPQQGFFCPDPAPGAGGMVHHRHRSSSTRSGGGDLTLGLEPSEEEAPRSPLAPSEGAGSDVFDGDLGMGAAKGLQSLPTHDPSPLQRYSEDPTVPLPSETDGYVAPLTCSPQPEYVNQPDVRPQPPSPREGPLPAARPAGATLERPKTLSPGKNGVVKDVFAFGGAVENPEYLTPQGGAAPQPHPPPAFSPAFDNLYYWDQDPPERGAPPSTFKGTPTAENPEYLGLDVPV

[2] = biological target: T1, Receptor tyrosine-protein kinase erbB-2; test: Inhibition of human erbB2 intracellular domain transfected in mouse NIH3T3 cells assessed as potency reduction in autophosphorylation of the chimera erbB2 incubated for 2 hrs in the presence of EGF stimulation by westernblot analysis; format: cell-based
BT-474 [3] = test: Antiproliferative activity against human BT-474 cells assessed as inhibition of cell growth; format: functional, cell-based
[4] = Antiproliferative activity against human SUM190PT cells assessed as inhibition of cell growth; format: functional, cell-based
MDA-MB-175-VII = test: Antiproliferative activity against human MDA-MB-175-VII cells assessed as inhibition of cell growth; format: functional, cell-based
SK-BR-3 [5] = test: Antiproliferative activity against human SK-BR-3 cells assessed as inhibition of cell growth; format: functional, cell-based
[6] = Antiproliferative activity against human EFM-192A cells assessed as inhibition of cell growth; format: functional, cell-based
[7] = Antiproliferative activity against human SUM225CWN cells assessed as inhibition of cell growth; format: functional, cell-based
HCC1419 = test: Antiproliferative activity against human HCC1419 cells assessed as inhibition of cell growth; format: functional, cell-based
ZR-75-30 = test: Antiproliferative activity against human ZR-75-30 cells assessed as inhibition of cell growth; format: functional, cell-based
UACC-812 = test: Antiproliferative activity against human UACC-812 cells assessed as inhibition of cell growth; format: functional, cell-based
T47D = test: Antiproliferative activity against human T47D cells assessed as inhibition of cell growth; format: functional, cell-based
MDA-MB-453 = test: Antiproliferative activity against human MDA-MB-453 cells assessed as inhibition of cell growth; format: functional, cell-based
MDA-MB-361 = test: Antiproliferative activity against human MDA-MB-361 cells assessed as inhibition of cell growth; format: functional, cell-based
MCF7 = test: Antiproliferative activity against human MCF7 cells assessed as inhibition of cell growth; format: functional, cell-based
[8] = Antiproliferative activity against human KPL-1 cells assessed as inhibition of cell growth; format: functional, cell-based
MDA-MB-157 = test: Antiproliferative activity against human MDA-MB-157 cells assessed as inhibition of cell growth; format: functional, cell-based
ZR-75-1 = test: Antiproliferative activity against human ZR-75-1 cells assessed as inhibition of cell growth; format: functional, cell-based
CAMA-1 = test: Antiproliferative activity against human CAMA-1 cells assessed as inhibition of cell growth; format: functional, cell-based
EFM-19 = test: Antiproliferative activity against human EFM-19 cells assessed as inhibition of cell growth; format: functional, cell-based
BT-20 = test: Antiproliferative activity against human BT-20 cells assessed as inhibition of cell growth; format: functional, cell-based
MDA-MB-468 = test: Antiproliferative activity against human MDA-MB-468 cells assessed as inhibition of cell growth; format: functional, cell-based
BT-474 [9] = test: Induction of cell cycle arrest in Her2-amplified human BT-474 cells overexpressing erbB2 assessed as increase in G1 phase at 1 micromol/L incubated for 24 hrs by flow cytometry analysis relative to control; format: functional; conditions: dose 1 µmol/L, at 1 µM
BT-474 [10] = test: Induction of cell cycle arrest in Her2-amplified human BT-474 cells overexpressing erbB2 assessed as reduction in S phase at 1 micromol/L incubated for 24 hrs by flow cytometry analysis relative to control; format: functional; design: scale not given: the % may be the effect or the level left; conditions: dose 1 µmol/L, at 1 µM
BT-474 [11] = test: Inhibition of colony formation in human BT-474 cells overexpressing erbB2 assessed as decrease in colony formation at 1 micromol/L by methanolic crystal violet staining relative to control; format: functional; conditions: dose 1 µmol/L
SK-BR-3 [12] = test: Inhibition of colony formation in human SK-BR-3 cells overexpressing erbB2 assessed as decrease in colony formation at 3 micromol/L by methanolic crystal violet staining relative to control; format: functional; conditions: dose 3 µmol/L
[13] = Antitumor activity against human erbB2 transfected FRE cells xenografted bearing female athymic nu-nu CD-1 mouse assessed as reduction in tumor erbB2 receptor phosphorylation at 25 mg/kg, po and measured at 30 mins by ELISA method relative to control; format: functional; design: scale not given: the % may be the effect or the level left; conditions: 0.5 h
[14] = Plasma concentration in human erbB2 transfected FRE cells xenografted bearing female athymic nu-nu CD-1 mouse at 25 mg/kg, po measured at 30 mins by liquid chromatography-tandem mass spectrometry analysis; format: ADME, organism-based
FRE [15] = test: Antitumor activity against human erbB2 transfected FRE cells xenografted bearing female athymic nu-nu CD-1 mouse assessed as tumor erbB2 receptor phosphorylation at 25 mg/kg, po administration and measured at 4 hrs by ELISA method; format: functional, organism-based
FRE [16] = test: Antitumor activity against human erbB2 transfected FRE cells xenografted bearing female athymic nu-nu CD-1 mouse assessed as tumor erbB2 receptor phosphorylation at 3.125 to 100 mg/kg, po administration by ELISA method; format: functional, organism-based; conditions: dose 3.125-100 mg/kg
[17] = Antitumor activity against human erbB2 transfected FRE cells xenografted bearing female athymic nu-nu CD-1 mouse assessed as reduction in tumor erbB2 receptor phosphorylation, po administration by ELISA method; format: functional, organism-based
BT-474 [18] = test: Antitumor activity against human BT-474-erbB2 cells xenografted bearing female athymic nu-nu CD-1 mouse assessed as reduction in tumor erbB2 receptor phosphorylation, po administration by ELISA method; format: functional, organism-based

**Q.** Which IC50 [1] does the source give for `COCC(=O)NC/C=C/c1ccc2ncnc(Nc3ccc(Oc4ccc(C)nc4)c(C)c3)c2c1` [CP-724714] here?
**A.** 10 nM

**Q.** What about the IC50 [2] of the same compound?
**A.** 32 nM

**Q.** What about the IC50 (BT-474 [3]) of the same compound?
**A.** 250 nM

**Q.** And the IC50 [4]?
**A.** 710 nM

**Q.** And the IC50 (MDA-MB-175-VII)?
**A.** 810 nM

**Q.** And the IC50 (SK-BR-3 [5])?
**A.** 950 nM

**Q.** What about the IC50 [6] of the same compound?
**A.** 960 nM

**Q.** And the IC50 [7]?
**A.** 990 nM

**Q.** And the IC50 (HCC1419)?
**A.** 1000 nM

**Q.** And the IC50 (ZR-75-30)?
**A.** 1500 nM

**Q.** What about the IC50 (UACC-812) of the same compound?
**A.** 1900 nM

**Q.** What about the IC50 (T47D) of the same compound?
**A.** 2400 nM

**Q.** What about the IC50 (MDA-MB-453) of the same compound?
**A.** 2500 nM

**Q.** And the IC50 (MDA-MB-361)?
**A.** 3700 nM

**Q.** And the IC50 (MCF7)?
**A.** 9800 nM

**Q.** What about the IC50 [8] of the same compound?
**A.** > 10000 nM

**Q.** And the IC50 (MDA-MB-157)?
**A.** > 10000 nM

**Q.** And the IC50 (ZR-75-1)?
**A.** > 10000 nM

**Q.** What about the IC50 (CAMA-1) of the same compound?
**A.** > 10000 nM

**Q.** What about the IC50 (EFM-19) of the same compound?
**A.** > 10000 nM

**Q.** What about the IC50 (BT-20) of the same compound?
**A.** > 10000 nM

**Q.** And the IC50 (MDA-MB-468)?
**A.** > 10000 nM

**Q.** What about the Activity (BT-474 [9]) of the same compound?
**A.** 83%

**Q.** And the Activity (BT-474 [10])?
**A.** 3.2%

**Q.** What about the inhibition at 1 µM (BT-474 [11]) of the same compound?
**A.** > 80%

**Q.** What about the inhibition at 3 µM (SK-BR-3 [12]) of the same compound?
**A.** > 80%

**Q.** And the Activity [13]?
**A.** ~75%

**Q.** And the concentration at 0.5 h [14]?
**A.** ~12500 ng/mL

**Q.** And the Activity (FRE [15])?
**A.** inactive

**Q.** What about the Activity (FRE [16]) of the same compound?
**A.** Active

**Q.** What about the EC50 [17] of the same compound?
**A.** 1 µg/mL (≈ 2.13 µM)

**Q.** What about the EC50 (BT-474 [18]) of the same compound?
**A.** 0.77 µg/mL (≈ 1.64 µM)
